Assay results as given in ChEMBL document CHEMBL1697681, “Predicting phospholipidosis using machine learning” (Mol Pharm, 2010).

These compounds were tested on Phospholipidosis (assay: Literature-mined public compounds from Lowe et al phospholipidosis modelling dataset).
For `CN(C)CCON=C1c2ccccc2CCc2ccccc21` [NOXIPTILINE], the Phospholipidosis was “Positive”. For `Cc1ccc(C(=O)Nc2ccc(S(=O)(=O)O)c3cc(S(=O)(=O)O)cc(S(=O)(=O)O)c23)cc1NC(=O)c1cccc(NC(=O)Nc2cccc(C(=O)Nc3cc(C(=O)Nc4ccc(S(=O)(=O)O)c5cc(S(=O)(=O)O)cc(S(=O)(=O)O)c45)ccc3C)c2)c1` [SURAMIN], the Phospholipidosis was “Positive”. `CC(=N)S` [THIOACETAMIDE] was tested, and the Phospholipidosis was “Negative”. For `CN(C)CCN(Cc1ccccc1)c1ccccn1` [TRIPELENNAMINE], the Phospholipidosis was “Positive”. In the case of `CCOC(=O)C1N=C(c2ccccc2F)c2cc(Cl)ccc2NC1=O` (stereo not drawn) [ETHYL LOFLAZEPATE], the Phospholipidosis is reported as “Positive”. `CN1CCN(C(c2ccccc2)c2ccccc2)CC1` [CYCLIZINE] was tested, and the Phospholipidosis was “Positive”. With `CC1(C)C(=O)NC(=O)N1CC(COc1ccc(-c2ccc(OC(F)(F)F)cc2)cc1)NC=O` (stereo not drawn) the Phospholipidosis was “Negative”. For `CCSCC[C@H](N)C(=O)O` [ETHIONINE], the Phospholipidosis was “Negative”. For `Nc1c2c(nc3ccccc13)CCCC2` [TACRINE], the Phospholipidosis was “Negative”. With `CN(C)CCCN1c2ccccc2Sc2ccccc21` [PROMAZINE] the Phospholipidosis was “Positive”. With `CN1CCN2c3ccccc3Cc3ccccc3C2C1` (stereo not drawn) [MIANSERIN] the Phospholipidosis was “Positive”. For `CN1CCN(C2=Nc3cc(Cl)ccc3N(C)n3cccc32)CC1`, the Phospholipidosis was “Positive”. `CC1(C)OC[C@H]([C@@H](CS(=O)(=O)c2ccc(Oc3ccc(OC(F)(F)F)cc3)cc2)N(O)C=O)O1` was tested, and the Phospholipidosis was “Negative”. In the case of `CN1CCN(CCCCN2C(=O)CN(/N=C/c3ccc(-c4ccc(Cl)cc4)o3)C2=O)CC1.Cl.Cl` [AZIMILIDE DIHYDROCHLORIDE], the Phospholipidosis is reported as “Positive”. For `CCN(CC)CCCC(C)Nc1ccnc2cc(Cl)ccc12` (stereo not drawn) [CHLOROQUINE], the Phospholipidosis was “Positive”. In the case of `CCC1(c2ccccc2)C(=O)NC(=O)NC1=O` [PHENOBARBITAL], the Phospholipidosis is reported as “Negative”. `CNCCCC12CCC(c3ccccc31)c1ccccc12` [MAPROTILINE] was tested, and the Phospholipidosis was “Positive”. With `C1CCC(C(CC2CCCCN2)C2CCCCC2)CC1` (stereo not drawn) [PERHEXILINE] the Phospholipidosis was “Positive”. In the case of `Oc1ncnc2[nH]ncc12` [ALLOPURINOL], the Phospholipidosis is reported as “Positive”. For `NCCc1cc(O)c(O)c(O)c1`, the Phospholipidosis was “Positive”. `NC[C@@H]1CC[C@@H](N)[C@@H](O[C@H]2[C@H](O)[C@@H](O[C@H]3O[C@H](CO)[C@@H](O)[C@H](N)[C@H]3O)[C@H](N)C[C@@H]2N)O1` [DIBEKACIN] was tested, and the Phospholipidosis was “Positive”. `CC(CCc1ccccc1)NCC(O)c1ccc(O)c(C(N)=O)c1` (stereo not drawn) [LABETALOL] was tested, and the Phospholipidosis was “Positive”. For `NCCc1cc(O)c(O)cc1O` [OXIDOPAMINE], the Phospholipidosis was “Positive”. For `CC(NC(C)(C)C)C(=O)c1cccc(Cl)c1` (stereo not drawn) [BUPROPION], the Phospholipidosis was “Negative”. With `CC(C)NCC(O)c1ccc(NS(C)(=O)=O)cc1` (stereo not drawn) [SOTALOL] the Phospholipidosis was “Negative”. For `CN1CCCCC1CCN1c2ccccc2Sc2ccc([S+](C)[O-])cc21` (stereo not drawn) [MESORIDAZINE], the Phospholipidosis was “Positive”. `Cc1cccc(CN2CCN(C(c3ccccc3)c3ccc(Cl)cc3)CC2)c1` (stereo not drawn) [MECLIZINE] was tested, and the Phospholipidosis was “Positive”. For `CNC(=O)Oc1ccc2c(c1)[C@]1(C)CCN(C)[C@@H]1N2C` [PHYSOSTIGMINE], the Phospholipidosis was “Negative”. In the case of `COc1cc2c(cc1OC)C(=O)C(CC1CCN(Cc3ccccc3)CC1)C2` (stereo not drawn) [DONEPEZIL], the Phospholipidosis is reported as “Negative”. For `CC[C@H]1OC(=O)[C@H](C)[C@@H](O[C@H]2C[C@@](C)(OC)[C@@H](O)[C@H](C)O2)[C@H](C)[C@@H](O[C@@H]2O[C@H](C)C[C@H](N(C)C)[C@H]2O)[C@](C)(O)C[C@@H](C)C(=O)[C@H](C)[C@@H](O)[C@]1(C)O` [ERYTHROMYCIN], the Phospholipidosis was “Positive”. `ClC(Cl)Cl` [CHLOROFORM] was tested, and the Phospholipidosis was “Negative”. `O=C(CCCN1CCC(O)(c2ccc(Cl)cc2)CC1)c1ccc(F)cc1` [HALOPERIDOL] was tested, and the Phospholipidosis was “Positive”. For `CCN[C@@H]1C[C@H](N)[C@@H](O[C@H]2OC(CN)=CC[C@H]2N)[C@H](O)[C@H]1O[C@H]1OC[C@](C)(O)[C@H](NC)[C@H]1O` [NETILMICIN], the Phospholipidosis was “Positive”. `Clc1ccccc1CNC[C@H]1CC[C@H](CNCc2ccccc2Cl)CC1` was tested, and the Phospholipidosis was “Positive”. In the case of `CN1CCCN(C(c2ccccc2)c2ccc(Cl)cc2)CC1` (stereo not drawn) [HOMOCHLORCYCLIZINE], the Phospholipidosis is reported as “Positive”. `CCN(CC)CCOc1ccc2c(c1)C(=O)c1cc(OCCN(CC)CC)ccc1-2` [TILORONE] was tested, and the Phospholipidosis was “Positive”. With `CN(C)[C@@H]1C(O)=C(C(N)=O)C(=O)[C@@]2(O)C(O)=C3C(=O)c4c(O)ccc(Cl)c4[C@@H](O)[C@H]3C[C@@H]12` [DEMECLOCYCLINE] the Phospholipidosis was “Negative”. In the case of `CCCC(CCC)C(=O)O` [VALPROIC ACID], the Phospholipidosis is reported as “Negative”. For `O=C1CN(/N=C/c2ccc(-c3ccc([N+](=O)[O-])cc3)o2)C(O)=N1` [DANTROLENE], the Phospholipidosis was “Negative”. With `CC(C)OC(=O)C(C)(C)Oc1ccc(C(=O)c2ccc(Cl)cc2)cc1` [FENOFIBRATE] the Phospholipidosis was “Negative”. In the case of `CC(=O)Oc1ccccc1C(=O)O` [ASPIRIN], the Phospholipidosis is reported as “Negative”. With `CC(C)(O/N=C(\C(=O)N[C@@H]1C(=O)N2C(C(=O)[O-])=C(C[n+]3ccccc3)CS[C@H]12)c1csc(N)n1)C(=O)O` [CEFTAZIDIME] the Phospholipidosis was “Negative”. `CN(C)CCCC1(c2ccc(F)cc2)OCc2cc(C#N)ccc21` (stereo not drawn) [CITALOPRAM] was tested, and the Phospholipidosis was “Positive”. In the case of `CNCCC(Oc1ccc(C(F)(F)F)cc1)c1ccccc1` (stereo not drawn) [FLUOXETINE], the Phospholipidosis is reported as “Positive”. For `CC(O)(CS(=O)(=O)c1ccc(F)cc1)C(=O)Nc1ccc(C#N)c(C(F)(F)F)c1` (stereo not drawn) [BICALUTAMIDE], the Phospholipidosis was “Negative”. With `CCC[C@@H](NC(=O)N1C(=O)C(CC)(CC)[C@@H]1Oc1ccc(C(=O)N2CCN(C)CC2)cc1)c1ccc2c(c1)OCO2` the Phospholipidosis was “Positive”. With `Cc1cn([C@H]2C=C[C@@H](CO)O2)c(=O)[nH]c1=O` [STAVUDINE] the Phospholipidosis was “Negative”. `CC(CN1c2ccccc2Sc2ccccc21)N(C)C` (stereo not drawn) [PROMETHAZINE] was tested, and the Phospholipidosis was “Positive”. With `NC(=O)NO` [HYDROXYUREA] the Phospholipidosis was “Negative”. In the case of `CN1CCN(C2=Nc3cc(Cl)ccc3Nc3ccccc32)CC1` [CLOZAPINE], the Phospholipidosis is reported as “Positive”. With `CN[C@H]1CC[C@@H](c2ccc(Cl)c(Cl)c2)c2ccccc21` [SERTRALINE] the Phospholipidosis was “Positive”. `CC(=O)N1CCN(c2ccc(OCC3COC(Cn4ccnc4)(c4ccc(Cl)cc4Cl)O3)cc2)CC1` (stereo not drawn) [KETOCONAZOLE] was tested, and the Phospholipidosis was “Positive”. With `CC(C)(N)Cc1ccccc1` [PHENTERMINE] the Phospholipidosis was “Positive”. `Clc1ccc(C(c2ccccc2)N2CCNCC2)cc1` (stereo not drawn) [NORCHLORCYCLIZINE] was tested, and the Phospholipidosis was “Positive”. In the case of `CC[C@H]1OC(=O)[C@H](C)[C@@H](O[C@H]2C[C@@](C)(OC)[C@@H](O)[C@H](C)O2)[C@H](C)[C@@H](O[C@@H]2O[C@H](C)C[C@H](N(C)C)[C@H]2O)[C@](C)(O)C[C@@H](C)CN(C)[C@H](C)[C@@H](O)[C@]1(C)O` [AZITHROMYCIN], the Phospholipidosis is reported as “Positive”. With `CN(C)CCCC1c2ccccc2Nc2ccc(Cl)cc21` (stereo not drawn) [CLOMACRAN] the Phospholipidosis was “Positive”. `CO[C@H]1/C=C/O[C@@]2(C)Oc3c(C)c(O)c4c(O)c(c(/C=N/N5CCN(C)CC5)c(O)c4c3C2=O)NC(=O)/C(C)=C\C=C\[C@H](C)[C@H](O)[C@@H](C)[C@@H](O)[C@@H](C)[C@H](OC(C)=O)[C@@H]1C` [RIFAMPIN] was tested, and the Phospholipidosis was “Negative”. In the case of `N=C(N)NCCCCCCCCCCNC(=N)N` [SYNTHALIN], the Phospholipidosis is reported as “Negative”. In the case of `Cl.Cl.O=C(CCN1CCN2CCCC2C1)N1c2ccccc2Sc2ccc(Cl)cc21` (stereo not drawn) [AZACLORZINE HYDROCHLORIDE], the Phospholipidosis is reported as “Negative”. `OC(CN1CCCCC1)c1ccc(C=C2c3ccccc3-c3ccccc32)cc1` (stereo not drawn) was tested, and the Phospholipidosis was “Positive”. With `CC1(C)N=C(N)N=C(N)N1OCc1ccc(Cl)c(Cl)c1` [CLOCIGUANIL] the Phospholipidosis was “Positive”. For `CSc1ccc2c(c1)N(CCC1CCCCN1C)c1ccccc1S2` (stereo not drawn) [THIORIDAZINE], the Phospholipidosis was “Positive”. In the case of `CN(C)CCCN1c2ccccc2CCc2ccc(Cl)cc21` [CLOMIPRAMINE], the Phospholipidosis is reported as “Positive”. In the case of `O=C(O)CCCCCCNC1c2ccccc2CCc2ccccc21` [AMINEPTINE], the Phospholipidosis is reported as “Negative”. `CCN(CC)CCn1nc2c3c(c(C)ccc31)Sc1cc(Cl)ccc1-2` was tested, and the Phospholipidosis was “Positive”. `O=C(NC1CCN(CCc2c[nH]c3ccccc23)CC1)c1ccccc1` [INDORAMIN] was tested, and the Phospholipidosis was “Positive”. `Cn1nnc2c(C(N)=O)ncn2c1=O` [TEMOZOLOMIDE] was tested, and the Phospholipidosis was “Negative”. With `O=C(N[C@H](CO)[C@H](O)c1ccc([N+](=O)[O-])cc1)C(Cl)Cl` [CHLORAMPHENICOL] the Phospholipidosis was “Positive”. In the case of `CCCCc1oc2ccccc2c1C(=O)c1cc(I)c(OCCN(CC)CC)c(I)c1` [AMIODARONE], the Phospholipidosis is reported as “Positive”. In the case of `NC(=O)c1ccccc1` [BENZAMIDE], the Phospholipidosis is reported as “Positive”. For `NC12CC3CC(CC(C3)C1)C2` [AMANTADINE], the Phospholipidosis was “Positive”. For `CN1CCN(C(c2ccccc2)c2ccc(Cl)cc2)CC1` (stereo not drawn) [CHLORCYCLIZINE], the Phospholipidosis was “Positive”. For `CC(=O)N(O)CCCCCNC(=O)CCC(=O)N(O)CCCCCNC(=O)CCC(=O)N(O)CCCCCN` [DEFEROXAMINE], the Phospholipidosis was “Negative”. For `Cc1ccc(C)c(OCCCC(C)(C)C(=O)O)c1` [GEMFIBROZIL], the Phospholipidosis was “Negative”. For `CC1=CC(=O)c2ccccc2C1=O` [MENADIONE], the Phospholipidosis was “Negative”. In the case of `CC[C@H]1CN2CCc3cc(OC)c(OC)cc3[C@@H]2C[C@@H]1C[C@H]1NCCc2cc(OC)c(OC)cc21` [EMETINE], the Phospholipidosis is reported as “Positive”. With `CC(CCCN(CCCl)CCCl)Nc1ccnc2cc(Cl)ccc12` (stereo not drawn) [CHLOROQUINE MUSTARD] the Phospholipidosis was “Positive”. For `FC(F)(F)c1ccc(-c2ccc(OCCN3CCCC3)cc2)cc1` [BOXIDINE], the Phospholipidosis was “Positive”. With `CC1(C)NC(=O)N(C[C@@H](COc2ccc(-c3ccc(OC(F)(F)F)cc3)cc2)N(O)C=O)C1=O` the Phospholipidosis was “Negative”. In the case of `COc1cc2c(c(OC)c1OC)-c1ccc(OC)c(=O)cc1[C@@H](NC(C)=O)CC2` [COLCHICINE], the Phospholipidosis is reported as “Negative”. For `C=C1C[C@@H]1C[C@H](N)C(=O)O`, the Phospholipidosis was “Negative”. For `CCOC(=O)C(C)(C)Oc1ccc(Cl)cc1` [CLOFIBRATE], the Phospholipidosis was “Negative”. `CCN(CC)CCNC(=O)c1ccc(N)cc1` [PROCAINAMIDE] was tested, and the Phospholipidosis was “Negative”.
